Measured values reported in patent US9302993B2, “8-hydroxy quinoline derivatives” (PRANA BIOTECHNOLOGY LIMITED, priority 2002, dated 2016).
Values joined by “and” are separate entries in the source; they are usually repeats but may differ in a detail not shown here. Equal entries are not always repeated. Where two headings read alike, the source gives them in different places.

Key:
[1] = test system: APP2576 transgenic mouse; test: Effect of administration of test compounds on Aβ deposits in transgenic animals (Assay 11); type: in vivo; design: concentration or dose not given beside the values; conditions: transgenic mouse brains; for Insoluble fraction. % change compared with control.: insoluble Aβ; for Soluble fraction. % change compared with control.: soluble Aβ
[2] = Pharmacokinetic profile, IV and oral (Assay 16); type: in vivo; conditions: rat; for BA (%): oral, calculated using the truncated AUC; for clearance: read-out: Cltotal (mL/min/Kg), total plasma clearance
Experimental: Assay 16. Pharmacokinetic Profile
• Intravenous infusion of PBT-1033; 2 mg/Kg (1 mL of a 0.5 mg/mL solution in 7.5% DMSO with 0.1 m Captisol in Citrate Buffer adjusted to pH 3.0) was administered over 5 minutes to 2 rats and arterial blood was sampled up to 24 hours. • Oral administration of PBT-1033; 30 mg/Kg (as a suspension in CMC-SSV*) via administered via oral gavage to 2 rats and arterial blood was sampled up to 26 hours. * Standard Suspending Vehicle—0.5% w/v Na-Carboxymethyl Cellulose (CMC), 5% v/v benzyl alcohol, 4% v/v Tween 80 in 0.9% NaCl. • Plasma concentrations of PBT-1033 were determined by LCMS (LOQ 3.7 nM). For rat 020710-D, an overlapping peak was present for PBT-1033.
[formula] [formula] [formula] Calculations: • CLtotal=total plasma clearance after IV administration • Vdβ=volume of distribution during the elimination phase after IV administration • BA=oral bioavailability • AUCIV=area under the plasma concentration versus time profile from time zero to infinity after IV administration • AUCoral=area under the plasma concentration versus time profile from time zero to infinity after oral administration • β=terminal elimination rate constant after IV administration • The results are shown in FIG. 4(a). (b) PBT-1038 • Intravenous infusion of PBT-1038; (0.5 mg/Kg in 7.5% DMSO in Citrate Buffer pH 3.0) was administered over 5 minutes to 2 rats and arterial blood was sampled up to 24 hours. • Oral administration of PBT-1038; (30 mg/Kg as a 0.05% CMC suspension) via administered via oral gavage to 2 rats and arterial blood was sampled up to 24 hours. • Plasma concentrations of PBT-1038 were determined by MS (LOQ 3 nM)
(c) PBT-1050 • Intravenous infusion of PBT-1050; (2 mg/Kg in 7.5% DMSO in Citrate Buffer pH 3.0) was administered over 5 minutes to 2 rats and arterial blood was sampled up to 24 hours. • Oral administration of PBT-1050; (30 mg/Kg as a 0.05% CMC suspension) was administered via oral gavage to 2 rats and arterial blood was sampled up to 24 hours. • Plasma concentrations of PBT-1050 were determined by MS (LOQ 3 nM)
(d) PBT-1051 • Intravenous infusion of PBT-1051; 2 mg/Kg (1 mL of a 0.6 mg/mL solution in 7.5% DMSO in Citrate Buffer pH 3.0) was administered over 5 minutes to 2 rats and arterial blood was sampled up to 24 hours. • Oral administration of PBT-1051; 30 mg/Kg (as a suspension in CMC-SSV*) was administered via oral gavage to 2 rats and arterial blood was sampled up to 24 hours. * Standard Suspending Vehicle—0.5% w/v Na-Carboxymethyl Cellulose (CMC), 5% v/v benzyl alcohol, 4% v/v Tween 80 in 0.9% NaCl. • Plasma concentrations of PBT-1051 were determined by LCMS (LOQ 3.7 nM)

[3] = E Log D, chromatographic method (Assay 13); type: physicochemical; conditions: SUPELCOSIL LC-ABZ column with octanol saturated mobile phase, pH 7.4; read-out: E Log D7.4
Experimental: Effective Log D values were measured using a chromatographic method employing a SUPELCOSIL LC-ABZ column using an octanol saturated mobile phase at pH 7.4.

[4] = test system: Neuronal cortical cells; test: Assay for test compound cytoxicity, MTS (Assay 3(d)); type: cell-based, mouse; conditions: BL6J×129sv, mouse, 4 days
[5] = test system: Neuronal cortical cells treated with Aβ1-42; test: Assay for Aβ neurotoxicity and Aβ neuroprotection (Assay 3(c)); type: cell-based, mouse; conditions: 20 uM Aβ1-42, 4 days, MTS
[6] = Blood brain barrier penetration, brain perfusion (Assay 14); type: in vivo; conditions: rat brain perfusion, 50 μM, 1.5 minutes
Experimental: Assay 14. Blood Brain Barrier Penetration
A trace amount of ^14C-sucrose was added to each stock infusion solution (approx 0.01 μCi/mL) to act as Blood-Brain Barrier (BBB)-impermeable marker in order to assess the integrity of the BBB during each perfusion and to estimate the volume of the residual vascular space (RVS) in samples of brain tissue (ie: the volume of fluid remaining inside the lumen of blood vessels at the end of each perfusion).
The right common carotid artery was surgically exposed and cannulated for perfusion of the cerebral circulation. The right external carotid artery (which supplies tissues outside the skull) was then ligated distal to its bifurcation from the right common carotid artery so that all of the infusion solution would pass into the brain via the remaining right internal carotid artery. The heart was then exposed and transected immediately prior to the commencement of the infusion. […] The infusion cannula initially contained a 0.5 mL pre-wash of heparinised PBS (10 IU/ml) that acts to flush blood vessels and to prevent blood from clotting and blocking small vessels.
After 1.5 minutes, the infusion pump automatically stopped, the cannula was withdrawn from the carotid artery and a sample of the infusion solution (1-1.5 mL) was then collected from the tip of the infusion cannula. The brain was then dissected free and divided into 3 parts; the right hemisphere together with the right midbrain, the left hemisphere together with the left midbrain and the hindbrain (cerebellum, pons and brainstem). Only the right part of the brain was used for subsequent measurements because perfusion via the right internal carotid artery preferentially supplies the right hemisphere and right midbrain (the left hemisphere and hindbrain receive a variable collateral perfusion). The brain tissue samples from each animal were frozen at −30° C., homogenized and weighed aliquots analysed by LC-MS to give total brain concentration. The analysis was carried out using the Micromass Triple Quad instrument. The mobile phase consisted of an acetonitrile/water gradient (containing 0.05% Formic acid) and the column was a Phenomenex Luna CN.
Small aliquots from each brain tissue sample and the corresponding infusion solution were analysed by liquid scintillation counting to determine the level of ^14C-sucrose. The residual vascular space (RVS) in each brain tissue sample was calculated by dividing the measured concentration of sucrose in brain tissue (dpm/mg) by its concentration in the corresponding infusion solution (dpm/μL). This is the volume of fluid that remains inside blood vessels at the end of each perfusion. […]
A total of 5-6 brain perfusion experiments were performed for each of the test compounds and mean brain uptake ratios were calculated.

[7] = IV, individual rats, listed as PBT 1033, hydrochloride
[8] = PO 30 mg/Kg, individual rats, listed as PBT 1033, hydrochloride, 30 mg/kg
[9] = plasma, po, 30 mg/kg, PO 30 mg/Kg, Mean ± SD
[10] = plasma, po, 30 mg/kg, PO 30 mg/Kg, Mean ± SD, read-out: Tmax (converted)
[11] = plasma, po, 30 mg/kg, PO 30 mg/Kg, individual rats
[12] = plasma, po, 30 mg/kg, PO 30 mg/Kg, individual rats, read-out: Tmax (converted)
[13] = PO 30 mg/Kg, individual rats, listed as PBT 1050, 30 mg/kg
[14] = IV, individual rats, listed as PBT 1051, hydrochloride
[15] = PO 30 mg/Kg, individual rats, listed as PBT 1051, hydrochloride, 30 mg/kg

SMILES | Insoluble fraction. % change compared with control. [1] [%] | Soluble fraction. % change compared with control. [1] | VdB ([2]; IV, Mean ± SD) [L/kg] | BA (%) ([2]; Mean ± SD) | Cmax ([2]; plasma, iv, 2 mg/kg, Mean ± SD) [µM] | Cmax [2, 9] [µM] | Tmax [2, 10] [min] | Cmax [2, 11] [µM] | Tmax [2, 12] [min] | chromatographic logD [3] | Test Compound Cytoxicity 1 uM [4] | Test Compound Cytoxicity 10 uM [4] | % inhibition Abeta toxicity [5] [%] | Uptake Ratio [6] [%] | Cmax ([2]; plasma, iv, Mean ± SD) [µM] | also measured
CN(C)Cc1ccc2c(Cl)cc(Cl)c(O)c2n1.Cl [compound 1033, 5,7-Dichloro-2-dimethylaminomethyl-quinolin-8-ol hydrochloride] | −29 | −37% | 9.03 ± 3.07 | 25.25 ± 0.29 | 1.59 ± 1.26 | 1.69 ± 0.47 | 52.5 | 2.02 | 45 | 1.32 | 80 | 70 | 38 | >50 |  | Cltotal (mL/min/Kg), total plasma clearance [2, 7]: 145.69 mL/min/kg; Cmax [2, 7]: 0.7 µM and 2.48 µM; Tmax [2, 7]: 20 min and 5 min; VdB [2, 7]: 6.86 L/kg and 11.20 L/kg; t1/2 [2, 7]: 53.29 min; Cmax [2, 8]: 1.36 µM; Tmax [2, 8]: 60 min; BA (%) ([2]; individual rats, listed as PBT 1033, hydrochloride): 25.45% and 25.04%; clearance ([2]; plasma, iv, 2 mg/kg, IV, Mean ± SD): 118 ± 38.7 mL/min/kg; Tmax ([2]; plasma, iv, 2 mg/kg, IV, Mean ± SD, read-out: Tmax (converted)): 12.5 min; clearance ([2]; plasma, iv, 2 mg/kg, IV, individual rats): 91 mL/min/kg; half-life ([2]; plasma, iv, 2 mg/kg, Mean ± SD): 52.8 ± 0.73 min; half-life ([2]; plasma, iv, 2 mg/kg, individual rats): 52.2 min
Cn1cnc(CCNC(=O)c2ccc3c(Cl)cc(Cl)c(O)c3n2)c1 [compound 1050, 5,7-dichloro-8-hydroxyquinoline-2-carboxylic acid [2-(1-methyl-1H-imidazol-4-yl)-ethyl]-amide] |  |  |  |  | 25.4 ± 12.1 | 34 ± 38.2 | 82.5 |  |  | 2.98 | 93 | 88 | 6 | >50 |  | Cmax ([2]; IV, individual rats, listed as PBT 1050): 33.9 µM and 16.9 µM; Cmax [2, 13]: 61 µM and 7.03 µM; Tmax [2, 13]: 45 min and 120 min
CCNCc1ccc2c(Cl)cc(Cl)c(O)c2n1.Cl [compound 1051, 5,7-dichloro-2-ethylaminomethyl-quinolin-8-ol hydrochloride] | −21 | negligible | 9.64 ± 0.77 | 27.75 ± 14.43 |  | 2.34 ± 1.18 | 45 |  | 60 | 2.64 | 87 | 56 | 23 | >50 | 2.99 ± 0.05 | Cltotal (mL/min/Kg), total plasma clearance [2, 14]: 135.58 mL/min/kg; Cmax [2, 14]: 3.03 µM; VdB [2, 14]: 10.19 L/kg and 9.10 L/kg; t1/2 [2, 14]: 46.52 min; Cmax [2, 15]: 3.18 µM and 1.5 µM; Tmax [2, 15]: 30 min; t1/2 [2, 15]: 365.72 min; BA (%) ([2]; individual rats, listed as PBT 1051, hydrochloride): 37.96% and 17.55%; clearance ([2]; plasma, iv, 2 mg/Kg, IV, Mean ± SD): 144 ± 12.5 mL/min/kg; clearance ([2]; plasma, iv, 2 mg/Kg, IV, individual rats): 153 mL/min/kg; half-life ([2]; plasma, iv, 2 mg/Kg, Mean ± SD): 46.3 ± 0.32 min; half-life ([2]; plasma, iv, 2 mg/Kg, individual rats): 46.1 min; Cmax ([2]; plasma, iv, individual rats): 2.96 µM; half-life [2, 9]: 283 ± 117 min; half-life [2, 11]: 200 min
O=C(NCCc1c[nH]cn1)c1ccc2c(Cl)cc(Cl)c(O)c2n1 [compound 1038, 5,7-Dichloro-8-hydroxyquinoline-2-carboxylic acid [2-(1H-imidazol-4-yl)-ethyl]-amide] | −37 | negligible |  |  |  | 63.1 ± 7.57 | 45 | 57.8 | 45 | 2.92 | 93 | 83 | 19 | >50 | 5.45 ± 3.7 | Cmax ([2]; IV, individual rats, listed as PBT 1038): 8.06 µM and 2.84 µM; Tmax ([2]; PO 30 mg/Kg, individual rats): 45 min; Cmax ([2]; PO 30 mg/Kg, individual rats, listed as PBT 1038, 30 mg/kg): 68.5 µM
